The values that follow come from US20240325370A1, “THERAPEUTIC REGIMENS OF A DEGRADER OF BRD9” (FOGHORN THERAPEUTICS INC., priority 2021, published 2024).

Series [1] concerns SYO-1 human biphasic synovial sarcoma tumor. The series can be described thus: SYO-1 synovial sarcoma xenograft efficacy, daily i.p. dosing. Format: in vivo. As to conditions: 1 mg/kg i.p. daily, 3 weeks; NOD SCID mice. As to the method: Method: NOD SCID mice (Beijing Anikeeper Biotech, Beijing) were inoculated subcutaneously on the right flank with the single cell suspension of SYO-1 human biphasic synovial sarcoma tumor cells (5×106) in 100 μL Dulbecco's Modified Eagle Medium (DMEM) with 10% fetal bovine serum (FBS). The mice were randomized into either control group [10% dimethyl sulfoxide (DMSO), 40% polyethylene glycol (PEG400) and 50% water], or treatment group D1 when the mean tumor size reached about 117 mm^3. Mice were dosed daily through intraperitoneal (i.p.) route over the course of 3 weeks. All dose volumes were adjusted by body weights in terms of mg/kg.

Series [2] is described as follows: Plasma exposure of compound S-D1 after the last dose. In kind it is in vivo, mice. Here is the method: The objective of this study was to provide proof-of-concept of anti-tumor efficacy with intermittent dosing schedules for compound S-D1 by IV administration. Groups of female SYO-1 tumor-bearing NOD SCID mice (n=10/group) were dosed IV with vehicle, compound D1 or compound S-D1 for 24 days according to treatments and dosing schedules shown in Table 10. Compound D1 was formulated in 10% DMSO/40% PEG400/50% water and compound S-D1 was formulated in 20% SBECD in 5 mM citrate buffer, final pH was adjusted to 5 with 1 N NaOH. For the compound S-D1 treatment groups, plasma samples were collected at designated time points following the last dosing. Plasma samples were acidified to stabilize the compound right after collection and analyzed for compound S-D1 concentrations.

In series [3] the target is T1, endogenous BRD9 (Homo sapiens, UniProt Q9H8M2).
T1 sequence (Q9H8M2 1-597): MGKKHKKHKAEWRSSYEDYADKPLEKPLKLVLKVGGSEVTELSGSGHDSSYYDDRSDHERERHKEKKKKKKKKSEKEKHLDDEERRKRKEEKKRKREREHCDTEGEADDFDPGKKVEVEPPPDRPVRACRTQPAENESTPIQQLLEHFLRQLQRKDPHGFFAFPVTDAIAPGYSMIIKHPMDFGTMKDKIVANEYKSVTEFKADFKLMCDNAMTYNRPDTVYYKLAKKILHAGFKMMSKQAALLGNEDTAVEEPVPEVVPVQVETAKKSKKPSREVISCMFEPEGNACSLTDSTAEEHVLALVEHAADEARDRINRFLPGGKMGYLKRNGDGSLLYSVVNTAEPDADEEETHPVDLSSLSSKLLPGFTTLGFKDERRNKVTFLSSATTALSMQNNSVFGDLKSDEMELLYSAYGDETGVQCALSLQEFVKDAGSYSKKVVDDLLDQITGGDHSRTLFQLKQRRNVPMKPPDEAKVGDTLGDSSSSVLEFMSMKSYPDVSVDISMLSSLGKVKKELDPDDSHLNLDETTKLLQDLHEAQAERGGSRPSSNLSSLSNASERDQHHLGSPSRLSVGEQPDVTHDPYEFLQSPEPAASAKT
Kind of series: MSD assay of endogenous BRD9 degradation in synovial sarcoma cell lines. The settings on record: 6 hours, estimated from racemate compound D1 (about 50% active enantiomer). In kind it is cell-based.

Regarding `COc1cc(-c2cn(C)c(=O)c3cnc(N4CCC4)cc23)cc(OC)c1CN1CCC(CN2CCC3(CC2)CN(c2ccc4c(c2)C(=O)N(C2CCC(=O)NC2=O)C4)C3)CC1` (racemic) [Compound D1, 3-[6-(7-[[1-([4-[6-(azetidin-1-yl)-2-methyl-1-oxo-2,7-naphthyridin-4-yl]-2,6-dimethoxyphenyl]methyl)piperidin-4-yl]methyl]-2,7-diazaspiro[3.5]nonan-2-yl)-1-oxo-3H-isoindol-2-yl]piperidine-2,6-dione], in series [1], the tumor growth inhibition result was “tumor growth inhibition”.
As to `COc1cc(-c2cn(C)c(=O)c3cnc(N4CCC4)cc23)cc(OC)c1CN1CCC(CN2CCC3(CC2)CN(c2ccc4c(c2)C(=O)N([C@H]2CCC(=O)NC2=O)C4)C3)CC1` (single isomer, unassigned) [Compound S-D1], the “exposure in plasma versus dose” value is “increased more than proportionally to dose” in series [2] (from 0.05 to […] IV) and “slightly less than proportionally to dose” in series [2] (from 0.25 to 2 mg/kg IV). Moreover, the DC50 in series [3] is 0.025 to 0.1 nM.
